Patent US20060063774A1, “Phosphodiesterase inhibitor compounds and nitric oxide donors” (priority 2004, published 2006)

Tested on: human corpus cavernosum tissue
Test: In vitro comparative relaxation responses in phenylephrine-contracted human corpus cavernosum tissue strips (organ chamber, isometric tension)
Type: cell-based
Details: 10 μM and 30 μM, cumulative additions; tissue contracted with phenylephrine 7×10^−7 M; −100% = tone after papaverine 10^−4 M; comparator equimolar dipyridamole; FIG. 40
Excerpt: FIG. 40 Graph of comparative in vitro relaxation effects of dipyridamole and Example 1 in phenylephrine induced contacted human corpus cavernosum tissue.
Human corpus cavernosum tissue biopsies were obtained at the time of penile prosthesis implantation from impotent men. The tissue was maintained in a chilled Krebs-bicarbonate solution prior to assay. The tissue was cut into strips of 0.3×0.3×1 cm and suspended in organ chambers for isometric tension measurement. Tissues were incrementally stretched until optimal isometrtic tension for contraction was obtained. Once this was achieved, the tissues were contracted with phenylephine (7×10^−7 M) and once a stable contraction was achieved, the tissues were exposed to either dipyridamole or Example 1 (10^−6 to 3×10^−5 M) by cumulative additions to the chamber. At the end of the experiment papaverine (10^−4 M) is added to obtain maximal relaxation. […] Data are expressed as the percent loss in tone from the phenylephrine-induced contraction (0%=phenylephrine contraction; −100%=tone after the administration of papaverine).

## CC(C)(CC(=O)OCCN(CCOC(=O)CC(C)(C)SN=O)c1nc(N2CCCCC2)c2nc(N(CCOC(=O)CC(C)(C)SN=O)CCOC(=O)CC(C)(C)SN=O)nc(N3CCCCC3)c2n1)SN=O [Example 1, 2,6-bis(diethyl(3-methyl-3(nitrosothiol)butyric acid ester)amino)-4,8-dipiperidinopyrimido-[5,4-d]-pyrimidine]
  relaxation of the phenylephrine-induced contraction (percent loss in tone), compared with dipyridamole: more efficacious in relaxing the phenylephrine-induced contaction than is an equimolar dose of the phosphodiesterase inhibitor dipyridamole
